The values that follow come from patent US11560400B2, “Salts of diphosphate phosphoramidate of nucleosides as anticancer compounds” (NuCana plc, priority 2017, dated 2023).

Each structure is given as a SMILES string. “Also recorded” adds a separate entry of the source. Counter-ions that a name gives are not always drawn. Like-named read-outs stand apart in the source and are kept apart here.

In series [1] the test system is Human hepatocytes. To be noted: pooled cryopreserved hepatocytes, 1 μM, 0 and 120 min, 37° C.
Series [2] has as its system MCF-7. The experiment in a line: CellTiterGlo cell viability assay, MCF-7. Format: cell-based. To be noted: MCF-7, 72 h; for EC50: read-out: Ab EC50. In outline:
(§1)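 Viability was measured by CellTiterGlo luminescence after 3 days of compound exposure, tested in duplicate at nine concentrations (3.16-fold steps, 198 μM top, 19.8 nM bottom, 0.5% DMSO final). Outputs were absolute EC50 and maximal percent inhibition at the highest dose.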
In general terms: In ATP-based viability assays light output follows the ATP content of the culture.

Series [3] relates to Mia-Pa-Ca-2. Kind of series: CellTiterGlo cell viability assay, Mia-Pa-Ca-2. To be noted: Mia-Pa-Ca-2, 72 h. Format: cell-based. In outline:
as §1

Series [4] concerns HT29. The experiment in a line: CellTiterGlo cell viability assay, HT29. Type of series: cell-based. To be noted: HT29, 72 h; for EC50: read-out: Ab EC50. In outline: as §1
Series [5] relates to CCRF-CEM. The experiment in a line: CellTiterGlo cell viability assay, CCRF-CEM. Type of series: cell-based. The note with it: Homo sapiens, 72 h. In outline: as §1
The subject of series [6] is K562. Kind of series: CellTiterGlo cell viability assay, K562. Format: cell-based. The note with it: Homo sapiens, K562, 72 h. In outline: as §1
Series [7] is described as follows: in vitro. To be noted: human, hepatocytes, pH 7.3.
Series [8] deals with RPMI-8226. The experiment in a line: CellTiterGlo cell viability assay, RPMI-8226. Type of series: cell-based, Human. The note with it: Homo sapiens, RPMI-8226, 72 h. In outline: as §1
Series [9] relates to OVCAR 3. The experiment in a line: CellTiterGlo cell viability assay, OVCAR 3. Format: cell-based. To be noted: Homo sapiens; OVCAR 3, 72 h, Table 3 classes; read-out: Ab EC50. In outline:
as §1

For series [10], the system named is HL-60. Kind of series: CellTiterGlo cell viability assay, HL-60. Type of series: cell-based. The note with it: Homo sapiens, HL-60, 72 h. In outline: as §1
The subject of series [11] is Lin−/CD34+/CD38−/CD123+ LSCs of KG1a cells. The experiment in a line: Leukaemic stem cell (LSC) targeting in KG1a cells. To be noted: in words. Format: cell-based. How it is done:
KG1a cells were cultured for 48 h in the presence of a wide range of concentrations of each nucleoside analogue and their respective diphosphate phosphramidate. Cells were then harvested and labelled with a cocktail of anti-lineage antibodies (PE-cy7), anti-CD34 (FITC), anti-CD38 (PE) and anti-CD123 (PERCP cy5). The sub-population expressing a leukaemic stem cell (LSC) phenotype were subsequently identified and were expressed as a percentage of all viable cells left in the culture. The percentages of stem cells remaining were then plotted on a dose-response graph and the effects of the diphosphate phosphoramidate were compared with the parental nucleosides.

Series [12] relates to KG1a cells. The experiment in a line: In vitro cytotoxicity, Annexin V/propidium iodide assay in KG1a cells. Format: cell-based. How it is done:
The acute myeloid leukaemia (AML) KG1a cell line was maintained in RPMI medium (Invitrogen, Paisley, UK) supplemented with 100 units/mL penicillin, 100 μg/mL streptomycin and 20% foetal calf serum. Cells were subsequently aliquoted (10^5 cells/100 μL) into 96-well plates and were incubated at 37° C. in a humidified normoxic (20% oxygen) or hypoxic (1% or 5% oxygen) atmosphere for 48 h in the presence of clofarabine, or clofarabine diphosphate phosphoramidates of the invention (1×10^−10M-1×10^−6M). In addition, control cultures were carried out to which no drug was added. Cells were subsequently harvested by centrifugation and were analysed by flow cytometry using the Annexin V assay.
Cultured cells were harvested by centrifugation and then resuspended in 195 μL of calcium-rich buffer. Subsequently, 5 μL of Annexin V (Caltag Medsystems, Botolph Claydon, UK) was added to the cell suspension and cells were incubated in the dark for 10 mins prior to washing. Cells were finally resuspended in 190 μL of calcium-rich buffer together with 10 μL of propidium iodide. Apoptosis was assessed by dual-colour immunofluorescent flow cytometry as described previously. Subsequently LD50 values (the dose required to kill 50% of the cells in a culture) were calculated for each nucleoside analogue and diphosphate phosphoramidate.
The data obtained in these experiments were evaluated using one-way ANOVA. All data was confirmed as Gaussian or a Gaussian approximation using the omnibus K2 test. LD50 values were calculated from the non-linear regression and line of best-fit analysis of the sigmoidal dose-response curves. All statistical analyses were performed using Graphpad Prism 6.0 software (Graphpad Software Inc., San Diego, Calif.).
The in vitro drug sensitivity of KG1a cells was assessed using the Annexin V/propidium iodide assay.

For series [13], the system named is MOLT-4. Kind of series: CellTiterGlo cell viability assay, MOLT-4. Format: cell-based. To be noted: Homo sapiens, MOLT-4, 72 h. In outline:
as §1

The test system of series [14] is RL. The experiment in a line: CellTiterGlo cell viability assay, RL. Type of series: cell-based. To be noted: Homo sapiens, 72 h. In outline:
as §1

Where [15] appears, read: percentage inhibition at the highest concentration tested.
[16] abbreviates: Table 3 classes, read-out: Ab EC50.
Setting [17] is: percentage inhibition at the highest concentration tested, read-out: Top Inh.

For `Nc1ncnc2c1nc(Cl)n2[C@@H]1O[C@H](CO)[C@@H](O)[C@H]1O` [8-Cl-Adenosine, reference compound], the “Human hepatocytes Mean half-life” value in series [1] was above 2 h. The EC50 in [2] (absolute EC50, numeric values) was 1.83 µM; in series [3] (absolute EC50, read-out: Ab EC50) it was 0.42 µM; in series [4] (absolute EC50, numeric values), 1.96 µM. Further, the “Top Inhibit” value was 85.7% in [2] (setting [15]), 85% in series [3] (setting [15]) and 73% in [4] (setting [15]).
Turning to `C[C@H](NP(=O)(Oc1ccccc1)OP(=O)(O)OC[C@H]1O[C@@H](n2cnc3c(N)nc(Cl)nc32)[C@H](F)C1O)C(=O)OCc1ccccc1` (stereo partly drawn) [Example 1, 2-Chloro-9-(2′-Deoxy-2′-fluoro-β-D-arabinofuranosyl)adenine-5′-O-[phenyl(benzoxy-L-alaninyl)] Diphosphate Triethylammonium Salt], the EC50 in [5] (setting [16]) is below 0.2 µM; in [6] (setting [16]), above 10 µM; in series [2] (Homo sapiens, MCF7, 72 h, Table 3 classes), 0.2 to 2 µM; in [8] (setting [16]), 5 to 10 µM; in series [9], above 10 µM; in series [10] (setting [16]) it was below 0.2 µM. For the same compound, the EC50 in series [4] (Homo sapiens, HT-29, 72 h, Table 3 classes) was 0.2 to 2 µM; in series [13] (setting [16]) it was below 0.2 µM; in series [14] (setting [16]), 0.2 to 2 µM. Besides, the inhibition at 198 µM in series [5] (setting [17]) was 98.7%; in series [6] (setting [17]), 24%; in series [2] (Homo sapiens, MCF7, 72 h, percentage inhibition at the highest concentration tested, read-out: Top Inhibit) it was 59%; in [8] (setting [17]), 91%; in series [10] (setting [17]), 97%; in series [4] (Homo sapiens, HT-29, 72 h, percentage inhibition at the highest concentration tested, read-out: Top Inhibit) it was 66%. The inhibition at 198 µM was determined as 82.7% in [13] (setting [17]) and 70% in series [14] (setting [17]). In addition, the half-life in [7] was in the range of 0.333 to 1.67 h. In series [11], the “selectivity against LSCs” value is reported as “trend towards increased selectivity”. Further, in series [12] (5% oxygen, in words), the “change of potency (mean LD50) under hypoxic versus normoxic conditions” value is “no significant difference in mean LD50 values; also recorded: reduction in potency was not observed”. The “Hypoxia Mean LD50” value in [12] (48 h, hypoxic (5% O2)) is recorded as 16.3 nM. In addition, the “Mean LD50 (Normoxia Mean LD50)” value in series [12] (48 h, normoxic (20% oxygen)) stood at 13.7 nM. For the same compound, in [12] (in words), the “potency in KG1a cells (dose-response curves)” value is recorded as “highest potency; also recorded: slightly more potent”. For the same compound, the “mean LD50” value in series [12] (normoxic) came to 13.7 nM. Moreover, the “Ratio Normoxia/Hypoxia” value in series [12] (ratio of mean LD50 values) was 84.0.

Broadly, the EC50 is the concentration giving half of the maximal effect. Usually half-life stands for the time in which the quantity being followed falls by half.
